Assay results as given in patent publication US20230293542A1, “SENSORY STIMULATING PSYCHOTROPIC DRUG” (KANSAI MEDICAL UNIVERSITY, priority 2020, published 2023).

System: C57/BL6 mice
Test: Contextual fear conditioning 30 min after intraperitoneal administration (inhibition of fear memory formation), freezing behavior
Format: in vivo
Conditions: intraperitoneal 200 μl of 1 v/v % solution in saline, 30 min before conditioning; freezing for 10 min on day 1, no odor; compared with saline-administered group (=100%); n=6; FIG. 2-12
Method: • Day 0: To about 2 month-old C57/BL6 mice was intraperitoneally administered 200 μl of saline, or 1 v/v % 2-methyl-2-thiazoline solution (dissolved in saline), or 1 v/v % 5-methylthiazole solution (dissolved in saline), or 1 v/v % 4-ethyl-2-methyl-2-thiazoline solution (dissolved in saline), or 1 v/v % 2,4,5-trimethyl-3-thiazoline solution (dissolved in saline), or 1 v/v % thiomorpholine solution (dissolved in saline), or 1 v/v % allyl isothiocyanate (AITC) solution (dissolved in saline), or 1 v/v % 2,3-diethylpyrazine solution (dissolved in saline), or 1 v/v % 2,6-lutidine solution (dissolved in saline) (each condition n=6). Thirty minutes after the administration, the mice were placed in an electric shock chamber, and 2-second electric shock (0.6 mA) was given 6 times at 2-minute intervals for 12 min for contextual fear conditioning. • Day 1: Mice were placed in the electric shock chamber (no odor) used for learning on the previous day, and freezing behavior was measured for 10 min using dedicated software (Freeze frame 2).
In addition, a student's t-test was performed between the saline-administered group and each compound-administered group (*p<0.05, ***p<0.001).
(§1) • Day 0: To about 2 month-old C57/BL6 mice was intraperitoneally administered 200 μl of saline or 1 v/v % 2-(allylthio)-2-thiazoline solution (dissolved in saline) (each condition n=6). Thirty minutes after the administration, the mice were placed in an electric shock chamber, and 2-second electric shock (0.6 mA) was given 6 times at 2-minute intervals for 12 min for contextual fear conditioning. • Day 1: Mice were placed in the electric shock chamber (no odor) used for learning on the previous day, and freezing behavior was measured for 10 min using dedicated software (Freeze frame 2).
A student's t-test was performed between the saline-administered group and the 2-(allylthio)-2-thiazoline-administered group (*p<0.05).
as §1, with “4-tert-butyl-2-methylthiazole” for “2-(allylthio)-2-thiazoline”
as §1, with “2-ethoxythiazole” for “2-(allylthio)-2-thiazoline”
as §1, with “2-methylbenzothiazole” for “2-(allylthio)-2-thiazoline”
• Day 0: To about 2 month-old 057/BL6 mice was intraperitoneally administered 200 μl of saline or 1 v/v % 2-mercaptothiazole solution (dissolved in saline) (each condition n=6). […]

SMILES | frequency of freezing behavior during the test (day 1)
CCc1nccnc1CC [2,3-diethylpyrazine] | significant decrease
CC1=NC(C)SC1C (centres unmarked) [2,4,5-trimethyl-3-thiazoline] | significant decrease
Cc1cccc(C)n1 [2,6-lutidine] | significant decrease
C=CCSC1=NCCS1 [2-(allylthio)-2-thiazoline] | significant decrease
CC(=O)c1ccc[nH]1 [2-acetylpyrrole] | significant decrease
NC1=NCCS1 [2-amino-2-thiazoline] | significant decrease
CCOc1nccs1 [2-ethoxythiazole] | significant decrease
Sc1nccs1 [2-mercaptothiazole] | significant decrease
CC1=NCCS1 [2-methyl-2-thiazoline] | significant decrease
Cc1nc2ccccc2s1 [2-methylbenzothiazole] | significant decrease
Cc1nccs1 [2-methylthiazole] | significant decrease
CC1CNCCS1 (centres unmarked) [2-methylthiomorpholine] | significant decrease
CCC1CSC(C)=N1 (centres unmarked) [4-ethyl-2-methyl-2-thiazoline] | significant decrease
Cc1nc(C(C)(C)C)cs1 [4-tert-butyl-2-methylthiazole] | significant decrease
Cc1cncs1 [5-methylthiazole] | significant decrease
C=CCN=C=S [AITC, allyl isothiocyanate] | significant decrease
C=C(C)CN=C=S [methallyl isothiocyanate] | significant decrease
C1CSCCN1 [thiomorpholine] | significant decrease

System: C57/BL6 mice
Test: Contextual fear conditioning in the presence of thiazoline-related fear odor (inhibition of fear memory formation), freezing behavior
Format: in vivo
Conditions: filter paper impregnated with 100 μl or 10 μl of 2MT during fear conditioning; freezing measured for 10 min on day 3 with Eugenol; compared to group that learned with no odor; FIG. 1
Method: • Day 0: About 2-month-old C57/BL6 mice were placed in an electric shock chamber, and 2-second electric shock (0.6 mA) was given 6 times at 2-minute intervals for 12 min for contextual fear conditioning. Conditioning was performed under 4 conditions of no odor condition (control; n=6) (group 1) and an electric shock chamber with filter paper impregnated with 100 μl of 2-methyl-2-thiazoline (2MT) condition (2MT; n=6) (group 2), or no odor condition (control; n=6) (group 3) and an electric shock chamber with filter paper impregnated with 10 μl of 2-methyl-2-thiazoline (2MT) condition (2MT; n=6) (group 4). • Day 1: Mice were placed in the electric shock chamber (no odor) used for learning on the previous day, and freezing behavior was measured for 10 min using dedicated software (Freeze frame 2; ActiMetrics). • Day 3: The mice of group 1 and group 2 were placed in an electric shock chamber with filter paper impregnated with 100 μl of Eugenol, and freezing behavior was measured for 10 min. The mice in group 3 and group 4 were placed in an electric shock chamber with filter paper impregnated with 10 μl of Eugenol, and freezing behavior was measured for 10 min.
A student's t-test was also performed between the group with no odor and the group with 2MT (**p<0.01, ***p<0.001).

SMILES | freezing behavior in the context with odor (eugenol odor context; day 3)
CC1=NCCS1 [2-methyl-2-thiazoline] | marked decrease

Same assay, conditions: filter paper impregnated with 100 μl or 10 μl of 2MT in electric shock chamber during fear conditioning; freezing measured for 10 min on day 1; compared to no odor group; FIG. 1

SMILES | freezing behavior in the no odor context (day 1)
CC1=NCCS1 [2-methyl-2-thiazoline] | remarkably decreased
